From patent US5492910A, “Retrocarbamate protease inhibitors” (Bristol-Myers Squibb Co., priority 1994, dated 1996) come the findings set out here.

Test [1] has as its target T1, HIV protease (Human immunodeficiency virus type 1 group M subtype B, UniProt P04585).
T1 construct: purified protease
As to the kind of experiment: HIV Protease Assay. Format: biochemical. The settings on record: 10 μM inhibitor, 4% DMSO, 450 μM substrate, pH 5.5, 30 minutes at 37° C. The method, then: An HIV protease standard assay was performed in a 60 μl reaction medium containing 50 mM sodium acetate, pH 5.5, 100 μg/ml bovine serum, 450 μM substrate (H2 N-Val-Ser-Gin-Asn-( β-naphthyl-alanine)-Pro-Val-Ile-OH), and purified protease. The reaction medium was incubated for 30 minutes at 37° C., quenched by the addition of 140 μl 5% H3 PO4, then analyzed by reverse phase HPLC using UV220 detection. In a typical control assay, 7% of the substrate was hydrolyzed. The retrocarbamate protease inhibitors of the present invention, listed in the following Table 1, were then employed in the assay, for which purpose they were prepared as a […] solution in DMSO then diluted to 30 μM with 50 mM sodium acetate/bovine serum albumen. This working stock was then diluted three-fold into the protease reaction medium, for a final concentration of 10 μM inhibitor and 4% DMSO.

In test [2] the test system is HIV (CEM Cells). As to the kind of experiment: Cell Culture Anti-HIV Activity (formazan cell viability of HIV-infected CEM-SS cells). Format: cell-based. The settings on record: Human immunodeficiency virus 1, CCRF-CEM, 144 h; CEM-SS cells infected with RF strain of HIV, multiplicity of infection 0.04, 6 days at 37° C.; concentration raising formazan production to 50% of uninfected cells. The method, then: The antiviral activity of the retrocarbamate protease inhibitors of the present invention was evaluated by a microculture method which determines the increase in cell viability of an infected culture when a drug is added. The assay depends on the metabolic reduction of tetrazolium reagent by viable cells to yield a soluble colored formazan product. The assay was performed as follows: suspensions of CEM--SS cells (5000/well) were infected with the RF strain of HIV at a multiplicity of infection at 0.04 in a 96-well plate. The compounds of the present invention listed in the following Table 1, serially diluted in half-log fashion, were added to the infected and uninfected control cells. Untreated (infected and uninfected) cells were included as controls. Following incubation for 6 days at 37° C., viable cells in each well were quantitated by the visible light absorbance at 450 nm. The IC50 was calculated as the concentration of drug that increased the formazan production in virally infected cells to 50% of that produced by uninfected cells in the absence of drug.

SMILES strings stand for the structures.

As a reminder, the inhibition is how much of the control response was suppressed. Low readings indicate little suppression, high ones strong suppression. Usually IC50 stands for the concentration needed to halve the response being measured. A higher IC50 goes with a need for much substance. In turn, `CC(C)(C)NC(=O)O[C@@H](Cc1ccccc1)[C@H](O)CNC[C@@H](O)[C@H](Cc1ccccc1)NC(=O)OC(C)(C)C` [Example 1, [1S-[1R*,2S*(2S*,3R*)]]-[3-[[3-[[[(1,1-Dimethylethyl)amino]carbonyl]oxy]-2-hydroxy-4-phenylbutyl]amino]-2-hydroxy-1-(phenylmethyl)-propyl]carbamic acid, 1,1-dimethyl ester] yielded an inhibition at 10 µM in test [1] of 98%. This molecule also gave an IC50 in test [2] of 460 nM.

Regarding `CC(C)(C)NC(=O)O[C@@H](Cc1ccccc1)[C@H](O)CNC[C@@H](O)[C@H](Cc1ccc(OCC(=O)N2CCOCC2)cc1)NC(=O)OC(C)(C)C` [Example 2, [1S-[1R*,2S* (2S*,3R*)]]-[3-[[3-[[[(1,1-Dimethylethyl)amino]carbonyl]oxy]-2-hydroxy-4-phenylbutyl]amino]-2-hydroxy-1-[[4-[2-(morpholinyl)-2-oxoethoxy]phenyl]methyl]propyl]carbamic acid, 1,1-dimethylethyl ester], at 10 µM the inhibition in test [1] was 90%. Further, in test [2], the half-inhibitory concentration (IC50) is 200 nM.

In turn, `CC(C)(C)NC(=O)O[C@@H](Cc1ccccc1)[C@H](O)CNC[C@@H](O)[C@H](Cc1ccccc1)NC(=O)[C@](C)(O)C(C)(C)C` [Example 3, [1S-[1R*, 2S*[2S*, 3R* (S*)]]]-(1,1-Dimethylethyl)carbamic acid, 3-[[3-[(2-hydroxy-2,3,3-trimethyl-1-oxobutyl)amino]-2-hydroxy-4-phenylbutyl]amino]-2-hydroxy-1-(phenylmethyl)propyl ester] registered an inhibition at 10 µM in test [1] of 98%. The molecule further returned an IC50 in test [2] of 100 nM.
